Patent publication US9067894B1, “Compound, composition, and method of activating GIRK potassium channel and use of same for treating conditions of interest” (Vanderbilt University, priority 2013, dated 2015)
Read-outs that look alike come from different tables or passages of the source.

How the values were obtained:
[1] = In vivo pharmacokinetic study, IP in mice; conditions: mouse, intraperitoneal 10 mg/kg
Description: In Vivo Pharmacokinetic Study. Compound(s) were formulated in 10% Tween80 in sterile water at the concentration of 3.33 mg/mL and administered IP to male C57 BL6 mice weighing 20 to 25 g (Harlan, Indianapolis, Ind.) at the dose of 10 mg/kg. The blood (cardiac puncture) and brain were collected at 0.5, 1, 3, and 6 hr. Animals were euthanized and decapitated, and the brains were removed, thoroughly washed in cold phosphate-buffered saline, and immediately frozen on dry ice. Plasma was separated by centrifugation (4000 rcf, 4° C.) and stored at −80° C. until analysis. On the day of analysis, frozen whole-[…] brains were weighed and diluted with 1:3 (w/w) parts of 70:30 isopropanol:water. The mixture was then subjected to mechanical homogenation employing a Mini-Beadbeater™ and 1.0 mm Zirconia/Silica Beads (BioSpec Products) followed by centrifugation. The sample extraction of plasma (20 μL) or brain homogenate (20 μL) was performed by a method based on protein precipitation using three volumes of ice-cold acetonitrile containing an internal standard (50 ng/mL carbamazepine). The samples were centrifuged (3000 rcf, 5 min) and supernatants transferred and diluted 1:1 (supernatant: water) into a new 96 well plate, which was then sealed in preparation for LC/MS/MS analysis.
LC/MS/MS Bioanalysis of Samples from In Vivo Studies. In vivo samples were analyzed via electrospray ionization (ESI) on an AB Sciex QTrap 5500 (Foster City, Calif.) triple-quadrupole linear ion trap instrument that was coupled with Shimadzu LC-20AD pumps (Columbia, Md.) and a Leap Technologies CTC PAL auto-sampler (Carrboro, N.C.). Analytes were separated by gradient elution using a Fortis C18 2.1×50 mm, 3 μm column (Fortis Technologies Ltd, Cheshire, UK) at 40° C. HPLC mobile phase A was 0.1% formic acid in water (pH unadjusted), mobile phase B was 0.1% formic acid in acetonitrile (pH unadjusted). […] The total run time was 2.5 min and the HPLC flow rate was 0.5 mL/min. The source temperature was set at 500° C. and mass spectral analyses were performed using multiple reaction monitoring (MRM), with transitions specific for each compound utilizing a Turbo-Ionspray® source in positive ionization mode (5.0 kV spray voltage). The calibration curves were constructed, and linear response was obtained in the range of 0.5 to 5,000 ng/mL, by spiking known amounts of […] in blank brain homogenate or plasma. All data were analyzed using AB Sciex Analyst software v1.5.1. The final PK parameters were calculated by noncompartmental analysis using Phoenix (version 6.2) (Pharsight Inc., Mountain View, Calif.).

[2] = Pentylenetetrazol (PTZ)-induced seizure model; format: in vivo, mouse; conditions: mice, i.p.; VU0456810 60 mg/kg, sodium valproate 150 mg/kg; PTZ 40 mg/kg; 20 minute timeframe
Description: After thirty minutes, PTZ was administered intraperitoneally (i.p., 40 mg/kg). Immediately following administration of PTZ, the amount of time elapsed before the first occurrence of tremors, tonic-clonic seizures, convulsion, and death was recorded. All mice were subject to a 20-minute post-[…] cutoff.
In all cases, experiments were conducted in a blind manner with respect to the experimenters. Data were evaluated in Excel using one-tailed, unpaired Student's t-test, assuming populations with unequal variance.

Glutamate (NMDA agonism) = assay: Radioligand displacement (Ricerca); format: binding, rat; conditions: 10 μM

## Cc1cc(NC(=O)Nc2ccc(F)c(F)c2)n(-c2ccccc2)n1 [VU0456810, 1-(3,4-difluorophenyl)-3-(3-methyl-1-phenyl-1H-pyrazol-5-yl)urea]
[1]; male, C57 BL6, brain/plasma, ip, 30 min after administration
  Kp at 0.5 h: 0.2
[1]; male, C57 BL6, brain, 30 min after administration, read-out: Brain concentration
  concentration at 30 min: 500 nM
[1]; male, C57 BL6, plasma, ip
  half-life: 20 min
[1]; male, C57 BL6, plasma, 30 min after administration, read-out: Plasma concentration
  concentration at 30 min: 2300 nM
[1]; 30 min after administration
  Plasma concentration: 2300 nM
[1]; 30 min after administration, read-out: Brain concentration
  concentration at 30 min: 500 nM
[2]
  animals experiencing convulsions from PTZ treatment: 5 out of 8 animals did not experience convulsions and significant decrease
  animals surviving PTZ treatment: 6 out of 8 animals survived and significant increase
Glutamate (NMDA agonism)
  % Inhibition: 21%
